Experiments:
[1] = Drug metabolism in mouse liver microsomes assessed as metabolic rate at 1 uM preincubated for 5 mins followed by NADPH addition after 30 mins by LC-MS/MS analysis; format: ADME, Microsome; settings: 0.5 h
[2] = tested on: Rattus norvegicus; test: Memory enhancement effect in time-delay induced Wistar rat model of amnesia assessed as exploration time for novel object in retention trial at 0.05 mg/kg, po for 7 days and measured on day 8 by novel object recognition test (reference value: 15.37 sec); format: functional
[3] = tested on: Rattus norvegicus; test: Memory enhancement effect in time-delay induced Wistar rat model of amnesia assessed as exploration time for familiar object in retention trial at 0.5 mg/kg, po for 7 days and measured on day 8 by novel object recognition test (reference value: 10.20 sec); format: functional
[4] = tested on: Rattus norvegicus; test: Memory enhancement effect in scopolamine-induced Wistar rat model of amnesia assessed as exploration time for object1 in acquisition trial at 0.05 mg/kg, po administered as single dose and measured on day 8 by novel object recognition test (reference value: 16.11 sec); format: functional
[5] = tested on: Rattus norvegicus; test: Memory enhancement effect in time-delay induced Wistar rat model of amnesia assessed as exploration time for object2 in acquisition trial at 0.15 mg/kg, po for 7 days and measured on day 8 by novel object recognition test (reference value: 11.76 sec); format: functional
[6] = tested on: Rattus norvegicus; test: Memory enhancement effect in scopolamine-induced Wistar rat model of amnesia assessed as exploration time for novel object in retention trial at 0.5 mg/kg, po for 7 days and measured on day 8 by novel object recognition test (reference value: 12.09 sec); format: functional
[7] = tested on: Rattus norvegicus; test: Improvement in social recognition time delay-induced Sprague-Dawley rat model of amnesia assessed as reduction in recognition index at 1 mg/kg, po administered as single dose prior to 1 hr training and measured after 30 mins (reference value: 1); format: functional
[8] = tested on: Rattus norvegicus; test: Improvement in social recognition scopolamine-induced Sprague-Dawley rat model of amnesia assessed as increase in reduction in social investigation time at 0.05 mg/kg, po for 7 days measured after 24 hrs (Rvb =6.59%); format: functional; design: scale not given: the % may be the effect or the level left
[9] = tested on: Rattus norvegicus; test: Memory enhancement effect in time-delay induced Wistar rat model of amnesia assessed as exploration time for object1 at 1 mg/kg, po administered as single dose after acquisition trial by novel object recognition test (reference value: 19.09 sec); format: functional
[10] = Drug concentration in Wistar rat plasma at 10 mg/kg, po after 8 hrs by LC-MS/MS analysis; format: ADME, organism-based
[11] = AUC (0 to 144 hrs) in Wistar rat at 10 mg/kg, po after 0.25 to 144 hrs by LC-MS/MS analysis; format: ADME, organism-based; design: dose 10 mg/kg, time < 144 hr, route oral; settings: in vivo
[12] = molecular target: T1, Cytochrome P450 1A2 (Homo sapiens, UniProt P05177); test: Inhibition of CYP1A2 (unknown origin) up to 10 uM; format: ADME
T1 sequence (P05177 whole entry): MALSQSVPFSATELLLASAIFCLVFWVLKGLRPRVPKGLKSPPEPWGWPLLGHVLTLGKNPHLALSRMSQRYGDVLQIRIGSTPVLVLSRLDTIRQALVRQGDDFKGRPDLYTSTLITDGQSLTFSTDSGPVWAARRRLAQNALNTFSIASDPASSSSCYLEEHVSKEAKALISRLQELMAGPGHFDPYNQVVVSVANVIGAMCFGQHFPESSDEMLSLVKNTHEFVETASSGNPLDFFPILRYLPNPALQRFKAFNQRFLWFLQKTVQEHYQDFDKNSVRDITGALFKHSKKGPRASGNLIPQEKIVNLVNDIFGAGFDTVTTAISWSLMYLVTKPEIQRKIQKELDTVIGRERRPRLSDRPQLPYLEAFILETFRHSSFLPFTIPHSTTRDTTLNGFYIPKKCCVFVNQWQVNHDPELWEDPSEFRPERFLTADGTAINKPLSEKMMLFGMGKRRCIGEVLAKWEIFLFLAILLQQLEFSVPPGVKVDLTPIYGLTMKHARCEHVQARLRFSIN

[13] = tested on: Rattus norvegicus; test: Memory enhancement effect in time-delay induced Wistar rat model of amnesia assessed as exploration time for familiar object in retention trial at 0.15 mg/kg, po for 7 days and measured on day 8 by novel object recognition test (reference value: 10.20 sec); format: functional
[14] = AUCt in Wistar rat brain at 10 mg/kg, po after 1 to 144 hrs by LC-MS/MS analysis; format: ADME, organism-based
[15] = Unbound brain-to-plasma concentration ratio in Wistar rat at 10 mg/kg, po after 8 hrs by LC-MS/MS analysis; format: ADME, organism-based; settings: read-out: K(p,uu,brain)
[16] = Drug level in scopolamine-induced Sprague-Dawley rat brain at 0.5 mg/kg, po for 7 days; format: ADME, organism-based; settings: read-out: Drug uptake
[17] = Unbound brain-to-plasma concentration ratio in Wistar rat at 10 mg/kg, po after 24 hrs by LC-MS/MS analysis; format: ADME, organism-based; settings: read-out: K(p,uu,brain)
[18] = tested on: Rattus norvegicus; test: Memory enhancement effect in time-delay induced Wistar rat model of amnesia assessed as increase in discrimination index at 0.15 mg/kg, po for 7 days and measured on day 8 by novel object recognition test (reference value: 0.12); format: functional
[19] = Volume of distribution at steady state in Beagle dog at 1 mg/kg, iv after 0.083 to 144 hrs by LC-MS/MS analysis; format: ADME, organism-based, Canis lupus familiaris; settings: in vivo, read-out: Vdss
[20] = Drug concentration in Wistar rat plasma at 10 mg/kg, po after 1 hr by LC-MS/MS analysis; format: ADME, organism-based
[21] = Drug metabolism in monkey liver microsomes assessed as metabolic rate at 1 uM preincubated for 5 mins followed by NADPH addition after 30 mins by LC-MS/MS analysis; format: ADME, Macaca mulatta, Microsome; settings: rhesus monkey, 0.5 h
[22] = tested on: Rattus norvegicus; test: Memory enhancement effect in scopolamine-induced Wistar rat model of amnesia assessed as exploration time for object1 in acquisition trial at 0.15 mg/kg, po for 7 days and measured on day 8 by novel object recognition test (reference value: 16.11 sec); format: functional
[23] = tested on: Rattus norvegicus; test: Improvement in social recognition time delay-induced Sprague-Dawley rat model of amnesia assessed as reduction in recognition index at 0.15 mg/kg, po for 7 days and measured on day 9 (reference value: 1.05); format: functional
[24] = tested on: Rattus norvegicus; test: Memory enhancement effect in time-delay induced Wistar rat model of amnesia assessed as exploration time for object2 in acquisition trial at 0.5 mg/kg, po for 7 days and measured on day 8 by novel object recognition test (reference value: 11.76 sec); format: functional
[25] = Drug concentration in Wistar rat brain at 10 mg/kg, po after 4 hrs by LC-MS/MS analysis; format: ADME, organism-based; settings: read-out: Drug uptake
[26] = Protein binding in human plasma at 5 uM incubated for 16 hrs under shaking condition by LC/MS/MS based rapid equilibrium dialysis method; format: ADME, cell-free; settings: read-out: PPB (converted)
[27] = tested on: Rattus norvegicus; test: Memory enhancement effect in time-delay induced Wistar rat model of amnesia assessed as increase in novel object discrimination at 3 mg/kg, po administered as single dose after acquisition trial by novel object recognition test (reference value: 0.08); format: functional
[28] = tested on: Rattus norvegicus; test: Memory enhancement effect in time-delay induced Wistar rat model of amnesia assessed as exploration time for object1 at 3 mg/kg, po administered as single dose after acquisition trial by novel object recognition test (reference value: 19.09 sec); format: functional
[29] = Drug level in scopolamine-induced Sprague-Dawley rat brain at 0.15 mg/kg, po for 7 days; format: ADME, organism-based; settings: read-out: Drug uptake

## CCC(=O)c1sc(-c2ccc(Cl)cc2)c(C)c1-c1ccc(S(N)(=O)=O)cc1
[1]
  Drug metabolism: 0.01 nmol/min/mg
[2]
  Time: 13.91 s
[3]
  Time: 4.9 s
[4]
  Time: 16.07 s
[5]
  Time: 13.58 s
[6]
  Time: 15.06 s
[7]
  Activity_index: 0.68
[8]
  Activity: 44.4%
[9]
  Time: 20.6 s
[10]
  concentration at 8 h: 830 nM
[11]
  AUC(0-t) at 144 h: 201 µM·h
[12]
  inhibition (INH): Not Active
[13]
  Time: 3.79 s
[14]
  AUC(0-t): 301 µM·h
[15]
  Kp uu at 8 h: 0.93
[16]
  concentration at 168 h: 2130 nM
[17]
  Kp uu at 24 h: 1.07
[18]
  Activity_index: 0.3
[19]
  Vd: 4 L/kg
[20]
  concentration at 1 h: 870 nM
[21]
  Drug metabolism: 0.03 nmol/min/mg
[22]
  Time: 14.08 s
[23]
  Activity_index: 0.56
[24]
  Time: 12.42 s
[25]
  concentration at 4 h: 9220 nM
[26]
  fraction unbound at 16 h, 5 µM: 0.0015
[27]
  Activity_index: 0.5
[28]
  Time: 17.81 s
[29]
  concentration at 168 h: 530 nM
